Values of other authors, collected in patent publication US20110256058A1, “Novel Peptides and Uses Thereof” (UNIVERSITY OF SOUTHERN CALIFORNIA, priority 2007, published 2011).

System: α2 aI domain
Details: literature; for conformational effect on α2 receptor: open conformation of α2 receptor

CARKKHDC [RKKH peptide of structural studies in the literature]
conformational effect on α2 receptor: induce conformational change

RSECD
inhibition of aI domain / α2β1 binding to collagen and laminin: fails to inhibit collagen binding

CTRKKHDNAQC
binding to aI domain: binds to aI domain
inhibition of aI domain / α2β1 binding to collagen and laminin: prevents its binding to collagen (type I, IV) and laminin (type 1)

CTRKKHDC [RKKH peptide of structural studies in the literature]
conformational effect on α2 receptor: induce conformational change
